Measured values: ChEMBL document CHEMBL1158107, “Oleanane and taraxerane glycosides from the roots of Gomphrena macrocephala” (J Nat Prod, 2006)
Activity calls are given as the source filed them. The calls are words filed in the database; no cut-off is given here.

Each molecule was assayed on HSC-2 (assay: Cytotoxicity against human HSC2 cells at 100 uM after 24 hrs by MTT assay). Conditions: not given.
Format: functional, cell-based

SMILES	Activity
CC1(C)CC[C@@]23CC[C@]4(C)[C@@](OC2=O)([C@@H]3C1)[C@H]1O[C@H]1[C@@H]1[C@@]2(C)CC[C@H](O[C@@H]3O[C@H](C(=O)O)[C@@H](O)[C@H](O[C@@H]5O[C@H](CO)[C@H](O)[C@H](O)[C@H]5O)[C@H]3O[C@@H]3O[C@H](CO)[C@@H](O)[C@H](O)[C@H]3O)C(C)(C)[C@@H]2CC[C@]14C	inactive
CC1(C)CC[C@]2(C(=O)O[C@@H]3O[C@H](CO)[C@@H](O)[C@H](O)[C@H]3O)CC=C3[C@](C)([C@@H]2C1)[C@H]1O[C@H]1[C@@H]1[C@@]2(C)CC[C@H](O[C@@H]4O[C@H](C(=O)O)[C@@H](O)[C@H](O)[C@H]4O)C(C)(C)[C@@H]2CC[C@@]31C	inactive
CC1(C)CC[C@@]23CC[C@]4(C)[C@@](OC2=O)([C@@H]3C1)[C@H]1O[C@H]1[C@@H]1[C@@]2(C)CC[C@H](O[C@@H]3O[C@H](C(=O)O)[C@@H](O)[C@H](O)[C@H]3O)C(C)(C)[C@@H]2CC[C@]14C	inactive

The molecules below were run on HSC-2 (assay: Cytotoxicity against human HSC2 cells after 24 hrs by MTT assay). Conditions: HSC-2, 24 h.
Format: functional, cell-based

SMILES	IC50 [µM]
CC1(C)CC[C@]2(C(=O)O)CC=C3[C@](C)([C@@H]2C1)[C@H]1O[C@H]1[C@@H]1[C@@]2(C)CC[C@H](O)C(C)(C)[C@@H]2CC[C@@]31C	21
COc1cc([C@@H]2c3cc4c(cc3[C@@H](O[C@@H]3O[C@@H]5CO[C@@H](C)O[C@H]5[C@H](O)[C@H]3O)[C@H]3COC(=O)[C@H]23)OCO4)cc(OC)c1O [ETOPOSIDE]	24
CC1(C)CC[C@@]23CC[C@]4(C)[C@@](OC2=O)([C@@H]3C1)[C@H]1O[C@H]1[C@@H]1[C@@]2(C)CC[C@H](O)C(C)(C)[C@@H]2CC[C@]14C	21
